pEC50: −log10 of the molar value. Read-outs that look alike come from different tables or passages of the source.

These results are taken from patent publication US20230000842A1, “METHODS OF TREATING CARTILAGE DISORDERS THROUGH INHIBITION OF CLK AND DYRK” (SAMUMED, LLC, priority 2019, published 2023).

Test [1] deals with primary human mesenchymal stem cells (hMSCs). Kind of test: Chondrogenesis screening using primary human mesenchymal stem cells. The format is cell-based. The conditions noted are these: hMSC chondrogenesis; for Emax: maximum activity relative to TGF-β3 (10 ng/mL) positive control, read-out: Max. Activity as % TGF-β3 activity; for EC50: concentration required to induce 50% levels of chondrogenesis with TGF-β3 as positive control, read-out: Conc (nM) of 50% TGF-β3 activity. The text has this:
Representative compounds were screened using primary human mesenchymal stem cells (hMSCs) to determine their ability to induce chondrogenesis (process by which cartilage is developed).
Human Mesenchymal Stem Cell Culture: Primary human mesenchymal stem cells (hMSCs) were purchased from Lonza (Walkersville, Md.) and expanded in Mesenchymal Stem Cell Growth Media (Lonza). Cells between passage 3 and 6 were used for the experiments.
Area of nodules in each well was normalized to the average of 3 DMSO treated wells on the same plate using Excel (Microsoft Inc.). The normalized averages (fold change over DMSO) of 2 or 3 replicate wells for each compound concentration were calculated. Due to solubility limitations of some of the compounds, curve fitting was incomplete leading to inaccurate EC50 determinations.
Using TGF-β3 as a positive control, the concentration of representative compounds required to induce 50% levels of chondrogenesis is reported. In addition, the maximum activity of each compound and the respective dose that each compound reached maximum chondrogenesis activity is reported.

Test [2] has as its system Wnt pathway activity (SW480 colon carcinoma cells stably expressing the Sp5-Luc reporter). Kind of test: Wnt pathway activity screening assay (Sp5-Luc reporter gene assay). The conditions noted are these: Homo sapiens, SW480, Table 4; SW480 cells stably expressing Sp5-Luc reporter, 10-point dose-response from 10 μM, 36 to 48 hours.
Another test has as its target CLK3 kinase (Homo sapiens, UniProt P49761). Kind of test: CLK3 kinase activity assay (Z-lyte FRET).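 Note: kinase activity read as coumarin/fluorescein emission ratio by FRET, unphosphorylated peptide as 0% and phosphorylated peptide as 100% control, values from non-linear regression of dose-response curves.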 In kind it is biochemical. As to conditions: Z-lyte Ser/Thr 18 peptide, 156 μM ATP, 1 h at room temperature.
A further test has as its target CLK2 kinase (Homo sapiens, UniProt P49760). Nature of the test: CLK2 kinase activity assay (Z-lyte FRET).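 Note: FRET read-out as coumarin to fluorescein emission ratio, unphosphorylated peptide as 0% and phosphorylated peptide as 100% controls, duplicate reactions, non-linear regression fit of dose-response curves.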 The conditions noted are these: Z-lyte Ser/Thr 6 peptide, 60 μM ATP, 1 h at room temperature. The format is biochemical.
[3] abbreviates: Homo sapiens, Mesenchymal stem cells.

Chain of CLK2 kinase (P49760 whole entry): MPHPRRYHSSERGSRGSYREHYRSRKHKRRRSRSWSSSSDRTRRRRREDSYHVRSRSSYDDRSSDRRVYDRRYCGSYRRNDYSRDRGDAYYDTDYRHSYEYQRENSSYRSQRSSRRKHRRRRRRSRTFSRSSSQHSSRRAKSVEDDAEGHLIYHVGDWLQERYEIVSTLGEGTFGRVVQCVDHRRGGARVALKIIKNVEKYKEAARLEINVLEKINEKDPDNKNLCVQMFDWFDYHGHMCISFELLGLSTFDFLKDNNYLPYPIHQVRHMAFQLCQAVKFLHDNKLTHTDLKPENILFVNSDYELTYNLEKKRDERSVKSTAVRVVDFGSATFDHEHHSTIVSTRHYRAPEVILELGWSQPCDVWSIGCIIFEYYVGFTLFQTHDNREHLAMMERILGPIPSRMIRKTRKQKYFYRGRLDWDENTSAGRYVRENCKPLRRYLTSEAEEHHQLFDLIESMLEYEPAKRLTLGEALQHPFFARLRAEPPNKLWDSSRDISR
Chain of CLK3 kinase (P49761 whole entry): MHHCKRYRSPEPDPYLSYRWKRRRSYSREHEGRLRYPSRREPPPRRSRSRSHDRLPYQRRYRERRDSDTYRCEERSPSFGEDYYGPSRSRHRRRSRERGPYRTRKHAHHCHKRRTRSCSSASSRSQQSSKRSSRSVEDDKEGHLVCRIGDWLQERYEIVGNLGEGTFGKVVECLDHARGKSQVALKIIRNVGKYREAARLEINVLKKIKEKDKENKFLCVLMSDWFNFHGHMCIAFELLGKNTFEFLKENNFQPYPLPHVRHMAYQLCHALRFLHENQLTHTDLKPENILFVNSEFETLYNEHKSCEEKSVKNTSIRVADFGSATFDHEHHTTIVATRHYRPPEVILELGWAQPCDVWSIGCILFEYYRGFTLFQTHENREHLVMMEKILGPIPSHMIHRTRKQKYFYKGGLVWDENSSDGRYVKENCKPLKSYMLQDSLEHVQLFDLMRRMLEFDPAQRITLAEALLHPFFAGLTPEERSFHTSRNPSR
Method for CLK2 kinase: This is a non-radioactive assay using fluorescence resonance energy transfer (FRET) between coumarin and fluorescein to detect kinase activity which is represented as a ratio of coumarin emission/fluorescein emission.
The mixture was allowed to incubate with the representative compounds for one hour at room temperature. All reactions were performed in duplicate. Unphosphorylated (“0% Control”) and phosphorylated (“100% control”) forms of Ser/Thr 6 served as control reactions. Additionally, an 11-point dose-response curve of Staurosporine (1 μM top) was run to serve as a positive compound control.
After incubation, Development Reagent A was diluted in Development Buffer then added to the reaction and allowed to further incubate for one hour at room temperature.
Dose-response curves were generated and inhibitory concentration (IC50) values were calculated using non-linear regression curve fit in the Dotmatics' Studies Software (Bishops Stortford, UK).

For `CCCCC(=O)Nc1cncc(-c2cc3c(-c4cc5cnccc5[nH]4)n[nH]c3cn2)c1` [compound 422], in test [1] (setting [3]), the Emax is 49.9%. In addition, the values for the pEC50 (in test [2]; at CLK3 kinase; at CLK2 kinase) were 5.45, 7.27 and 8.52, respectively.

For `Fc1cccc(-c2cncc3[nH]c(-c4n[nH]c5ccc(-c6cncc(CN7CCC(F)(F)C7)c6)cc45)nc23)c1` [compound 141], in test [1] (setting [3]), the Emax amounted to 102%. Also, the EC50 in test [1] amounted to 30 nM. For the same compound, the negative logarithm of the EC50 (pEC50) in test [2] is 7.58; on CLK3 kinase, 7.48; on CLK2 kinase, 8.05.

For the compound `CC(C)Nc1cncc(-c2cnc3[nH]nc(-c4cc5c(N6CCCCC6)nccc5[nH]4)c3c2)c1` [compound 463], in test [1] (setting [3]), the Emax turned out to be 33.6%. The values for the pEC50 (in test [2]; at CLK3 kinase; on CLK2 kinase) were 5.47, 5.89 and 7.89, respectively.

For `O=C(CC1CCNCC1)Nc1cncc(-c2cc3c(-c4nc5c(-c6cccc(F)c6)ccnc5[nH]4)n[nH]c3cn2)c1` [compound 128], the Emax in test [1] (setting [3]) amounted to 54.7%. In addition, the pEC50 in test [2] is 6.46; on CLK3 kinase, 7.55; at CLK2 kinase it was 8.70.

In the case of `CC(C)Nc1cncc(-c2ccc3[nH]nc(-c4nc5c(-c6cccnc6)nccc5[nH]4)c3n2)c1` [compound 193], in test [1] (setting [3]), the EC50 worked out at 10 nM. In test [1] (setting [3]), the Emax came to 54.4%. The figures for the negative-log EC50 (pEC50) (in test [2]; at CLK3 kinase; at CLK2 kinase) were 6.01, 6.49 and 8.70, respectively.

Consider `CC(C)CC(=O)Nc1ccncc1NC(=O)c1n[nH]c2ccc(-c3cncc(CN4CCCCC4)c3)cc12` [compound 85], for which the Emax in test [1] (setting [3]) was determined as 45.4%. Moreover, the negative logarithm of the EC50 (pEC50) in test [2] is 7.60; at CLK3 kinase, 5.74; at CLK2 kinase, 8.15.

For `CC(C)Nc1cncc(-c2ccc3[nH]nc(-c4cc5c(-c6cccnc6)cncc5[nH]4)c3c2)c1` [compound 360], the Emax in test [1] (setting [3]) is 41.9%. Moreover, the figures for the negative-log EC50 (pEC50) (in test [2]; at CLK3 kinase; at CLK2 kinase) were 6.17, 6.48 and 8.40, respectively.

For the compound `CN1CCN(c2nccc3[nH]c(-c4n[nH]c5ccc(-c6cncc(NC(=O)c7ccccc7)c6)cc45)cc23)CC1` [compound 486], the Emax in test [1] (setting [3]) was 34.6%. Besides, the figures for the negative logarithm of the EC50 (pEC50) (in test [2]; on CLK3 kinase; at CLK2 kinase) were 5.67, 6.54 and 8.22, respectively.

For the compound `CN1CCN(c2nccc3[nH]c(-c4n[nH]c5cnc(-c6cncc(NC(=O)c7ccccc7)c6)cc45)cc23)CC1` [compound 487], in test [1] (setting [3]), the EC50 turned out to be 10 nM. Further, in test [1] (setting [3]), the Emax amounted to 67%. In addition, the pEC50 was 5.55 in test [2], 6.52 on CLK3 kinase and 8.30 on CLK2 kinase.

Consider `CC(C)Nc1cncc(-c2ccc3[nH]nc(-c4nc5c(-c6cccnc6)ccnc5[nH]4)c3n2)c1` [compound 195], for which the EC50 in test [1] (setting [3]) is 10 nM. Also, in test [1] (setting [3]), the Emax came to 114%. The pEC50 is 5.76 in test [2], 6.55 at CLK3 kinase and 9.00 on CLK2 kinase.

Turning to `COc1cncc(C(=O)Nc2c[nH]nc2C(=O)Nc2ccc(OCCN3CCCC3)nc2)c1` [compound 5], the EC50 in test [1] (setting [3]) turned out to be 10 nM. Also, in test [1] (setting [3]), the Emax stood at 106%. The pEC50 in test [2] is 7.65; on CLK3 kinase, 5.31; at CLK2 kinase, 7.70.

On to `c1cncc(-c2ccc3[nH]nc(-c4nc5c(-c6cccnc6)nccc5[nH]4)c3n2)c1` [compound 183], for which the EC50 in test [1] (setting [3]) came out at 100 nM. Further, the Emax in test [1] (setting [3]) came to 70%. Besides, the pEC50 in test [2] is less than 5.00; on CLK3 kinase it was 6.98; at CLK2 kinase, 9.00.

Take `CCCC(=O)Nc1cncc(-c2ccc3[nH]nc(-c4nc5c(-c6ccncc6)cncc5[nH]4)c3n2)c1` [compound 196]: the Emax in test [1] (setting [3]) stood at 31%. The results for the negative logarithm of the EC50 (pEC50) (in test [2]; on CLK3 kinase; on CLK2 kinase) were 6.00, 6.00 and 8.30, respectively.

Consider `Cc1ccc(NC(=O)c2n[nH]c3ccc(-c4cncc(CN5CCCCC5)c4)cc23)cn1` [compound 78], for which the EC50 in test [1] (setting [3]) came out at 30 nM. Further, the Emax in test [1] (setting [3]) came out at 102%. Moreover, the negative logarithm of the EC50 (pEC50) in test [2] was 7.24; at CLK3 kinase, 7.36; at CLK2 kinase it was 9.00.

For the compound `CC(C)(C)CC(=O)Nc1cncc(-c2cc3c(-c4cc5c(-c6ccccc6F)nccc5[nH]4)n[nH]c3cn2)c1` [compound 327], the EC50 in test [1] (setting [3]) is 30 nM. Moreover, in test [1] (setting [3]), the Emax came to 54.3%. Besides, the pEC50 in test [2] is 5.99; at CLK3 kinase it was 6.38; on CLK2 kinase, 8.00.

Take `FC1(F)CCN(Cc2cncc(-c3ccc4[nH]nc(-c5cc6c(-c7cccnc7)cncc6[nH]5)c4n3)c2)C1` [compound 371]: the Emax in test [1] (setting [3]) worked out at 23.3%. In addition, the negative logarithm of the EC50 (pEC50) in test [2] is 5.41; on CLK3 kinase, 6.39; on CLK2 kinase, 7.96.

Turning to `c1cncc(-c2ccnc3[nH]c(-c4n[nH]c5ncc(-c6cncc(CN7CCCCC7)c6)cc45)cc23)c1` [compound 372], in test [1] (setting [3]), the Emax worked out at 43.9%. Also, the pEC50 was less than 5.00 in test [2], 7.16 at CLK3 kinase and 8.70 at CLK2 kinase.

As to `CCC(=O)Nc1cncc(-c2cnc3[nH]nc(-c4cc5cnccc5[nH]4)c3c2)c1` [compound 418], the Emax in test [1] (setting [3]) worked out at 16.9%. In addition, the figures for the pEC50 (in test [2]; at CLK3 kinase; at CLK2 kinase) were 6.02, 7.39 and 8.70, respectively.

Regarding `c1cncc(-c2cc3c(-c4cc5c(-c6cccnc6)cncc5[nH]4)n[nH]c3cn2)c1` [compound 343], in test [1] (setting [3]), the EC50 was determined as 100 nM. Moreover, in test [1] (setting [3]), the Emax was found to be 76.4%. The pEC50 is 5.87 in test [2], 6.33 at CLK3 kinase and 8.52 at CLK2 kinase.

With `CCC(=O)Nc1cncc(-c2cnc3[nH]nc(-c4nc5c(-c6ccc(F)cc6)cncc5[nH]4)c3c2)c1` [compound 160], the EC50 in test [1] (setting [3]) was 300 nM. The Emax in test [1] (setting [3]) came to 143%. Also, the results for the negative-log EC50 (pEC50) (in test [2]; on CLK3 kinase; at CLK2 kinase) were 7.96, 7.43 and 8.52, respectively.

Regarding `CN(C)c1cncc(-c2ccc3[nH]nc(-c4nc5c(-c6cccc(F)c6)cncc5[nH]4)c3n2)c1` [compound 132], the EC50 in test [1] (setting [3]) worked out at 10 nM. In addition, in test [1] (setting [3]), the Emax stood at 154%. The pEC50 in test [2] is 6.20; at CLK3 kinase, 7.92; on CLK2 kinase, 9.00.

In the case of `O=C(Nc1cncc(-c2cnc3[nH]nc(-c4cc5c(-c6cccs6)nccc5[nH]4)c3c2)c1)C1CCC1` [compound 507], the EC50 in test [1] (setting [3]) was determined as 100 nM. In addition, in test [1] (setting [3]), the Emax turned out to be 82.2%. The negative-log EC50 (pEC50) in test [2] is 6.32; on CLK3 kinase, 7.22; on CLK2 kinase it was 8.00.

Turning to `CC(C)CC(=O)Nc1cncc(-c2cc3c(-c4nc5c(-c6ccoc6)cccc5[nH]4)n[nH]c3cn2)c1` [compound 233], the Emax in test [1] (setting [3]) was 58%. For the same compound, the results for the negative logarithm of the EC50 (pEC50) (in test [2]; on CLK3 kinase; at CLK2 kinase) were 7.26, 6.28 and 8.10, respectively.

Take `CN(C)Cc1cncc(-c2ccc3[nH]nc(-c4cc5c(-c6cccc(F)c6)nccc5[nH]4)c3c2)c1` [compound 308]: the Emax in test [1] (setting [3]) was 42%. Moreover, the figures for the negative-log EC50 (pEC50) (in test [2]; at CLK3 kinase; at CLK2 kinase) were 5.53, 7.08 and 8.15, respectively.

Take `Cc1cn(-c2ccnc3[nH]c(-c4n[nH]c5ccc(-c6cncc(NC(=O)C7CCC7)c6)nc45)nc23)cn1` [compound 228]: the EC50 in test [1] (setting [3]) stood at 300 nM. In test [1] (setting [3]), the Emax is 69.1%. In addition, the pEC50 in test [2] was less than 5.00; at CLK3 kinase, 6.97; on CLK2 kinase it was 8.40.

For the compound `Cc1ccc(-c2nccc3[nH]c(-c4n[nH]c5ccc(-c6cncc(N)c6)cc45)nc23)s1` [compound 272], the EC50 in test [1] (setting [3]) is 2700 nM. In test [1] (setting [3]), the Emax was found to be 163%. Also, the negative-log EC50 (pEC50) in test [2] was 8.72; on CLK3 kinase it was 7.28; on CLK2 kinase, 8.30.

As to `CN(C)Cc1cncc(-c2ccc3[nH]nc(-c4cc5c(-c6cccc(F)c6)cncc5[nH]4)c3c2)c1` [compound 309], the Emax in test [1] (setting [3]) was 193%. Further, the negative logarithm of the EC50 (pEC50) was 5.89 in test [2], 7.43 at CLK3 kinase and 8.52 on CLK2 kinase.

As to `Fc1ccccc1-c1nccc2[nH]c(-c3n[nH]c4cnc(-c5cn[nH]c5)cc34)cc12` [compound 340], in test [1] (setting [3]), the EC50 was determined as 10 nM. Moreover, the Emax in test [1] (setting [3]) is 89.2%. In addition, the pEC50 was 7.52 in test [2], 6.11 at CLK3 kinase and 8.00 at CLK2 kinase.

Take `Cc1n[nH]c2ccc(-c3cncc(OC[C@H](N)Cc4ccccc4)n3)cc12` [compound 52]: the EC50 in test [1] (setting [3]) was found to be 30 nM. For the same compound, the Emax in test [1] (setting [3]) was 52.1%. Also, the pEC50 in test [2] is 6.60; at CLK3 kinase, 6.44; at CLK2 kinase, 8.70.

`CC(C)CC(=O)Nc1cncc(-c2ccc3[nH]nc(-c4nc5c(-c6cccc(F)c6)ccnc5[nH]4)c3c2)c1` [compound 124]: in test [1] (setting [3]), the Emax is 61%. The negative-log EC50 (pEC50) in test [2] is 8.85; on CLK3 kinase, 6.66; at CLK2 kinase it was 7.43.
